Experimental data taken from ChEMBL document CHEMBL3885881, “DrugMatrix”.

Species on record: Rattus norvegicus
Test: DrugMatrix - Regimen: Daily Repeat
Assay type: toxicity, organism-based, Sprague-Dawley
Parameters: regimen Daily Repeat, gender Male, age 6-8 weeks
Details: in vivo, sc, route subcutaneous, […]; for ABSOLUTE BASOPHIL / ABSOLUTE EOSINOPHIL / ABSOLUTE LYMPHOCYTE / ABSOLUTE MONOCYTE / ABSOLUTE SEGMENTED NEUTROPHIL / BASOPHIL / EOSINOPHIL / ERYTHROCYTE COUNT / HEMATOCRIT / HEMOGLOBIN / LEUKOCYTE COUNT / LYMPHOCYTE / MEAN CORPUSCULAR HEMOGLOBIN / MEAN CORPUSCULAR HEMOGLOBIN CONCENTRATION / MEAN CORPUSCULAR VOLUME / MONOCYTE / NEUTROPHIL / NUCLEATED RED BLOOD CELLS / PLATELET COUNT: tissue Blood; for ALANINE AMINOTRANSFERASE / ALBUMIN / ALKALINE PHOSPHATASE / ASPARTATE AMINOTRANSFERASE / BLOOD UREA NITROGEN / CARBON DIOXIDE / CHLORIDE / CHOLESTEROL / CREATINE PHOSPHOKINASE / CREATININE / GLUCOSE / LACTATE DEHYDROGENASE / LIPASE / PHOSPHORUS / POTASSIUM / SODIUM / TOTAL BILIRUBIN / TOTAL PROTEIN / URIC ACID: tissue Plasma
[1] = 56 mg/kg, 120 h, dose level High, time 5 day
[2] = 72 h, dose 3.3 mg/Kg, dose level Low, time 3 day
[3] = 120 h, dose 3.3 mg/Kg, dose level Low, time 5 day

## C[C@]12CCC(=O)C=C1CC[C@@H]1[C@@H]2[C@@H](O)C[C@@]2(C)[C@H]1CC[C@]2(O)C(=O)CO [HYDROCORTISONE]
[1]
  ABSOLUTE BASOPHIL: 0 CELLS/uL
  ABSOLUTE EOSINOPHIL: 0 CELLS/uL
  ABSOLUTE LYMPHOCYTE: 1058 CELLS/uL
  ABSOLUTE MONOCYTE: 166.67 CELLS/uL
  ABSOLUTE SEGMENTED NEUTROPHIL: 5575.33 CELLS/uL
  BASOPHIL: 0%
  EOSINOPHIL: 0%
  ERYTHROCYTE COUNT: 6.58 x10E6/uL
  HEMATOCRIT: 40.47%
  HEMOGLOBIN: 15.5 G/DL
  LEUKOCYTE COUNT: 6.8 x10E3/uL
  LYMPHOCYTE: 17%
  MEAN CORPUSCULAR HEMOGLOBIN: 23.6 pg
  MEAN CORPUSCULAR HEMOGLOBIN CONCENTRATION: 38.3 G/DL
  MEAN CORPUSCULAR VOLUME: 61.63 fL
  MONOCYTE: 2.33%
  NEUTROPHIL: 80.67%
  NUCLEATED RED BLOOD CELLS: 0 /100WBC
  PLATELET COUNT: 1367.33 x10E3/uL
  ALANINE AMINOTRANSFERASE: 309 u/L
  ALBUMIN: 4.87 G/DL
  ALKALINE PHOSPHATASE: 497.33 u/L
  ASPARTATE AMINOTRANSFERASE: 475.33 u/L
  BLOOD UREA NITROGEN: 23 mg/dL
  CARBON DIOXIDE: 31.33 mmol/L
  CHLORIDE: 95 MEQ/L
  CHOLESTEROL: 140 mg/dL
  CREATINE PHOSPHOKINASE: 224.67 u/L
  CREATININE: 0.49 mg/dL
  GLUCOSE: 479 mg/dL
  LACTATE DEHYDROGENASE: 701 u/L
  LIPASE: 15 u/L
  PHOSPHORUS: 12.63 mg/dL
  POTASSIUM: 5.83 MEQ/L
  SODIUM: 145.23 MEQ/L
  TOTAL BILIRUBIN: 0.17 mg/dL
  TOTAL PROTEIN: 6.73 G/DL
  URIC ACID: 1.57 mg/dL
[2]
  ABSOLUTE BASOPHIL: 0 CELLS/uL
  ABSOLUTE EOSINOPHIL: 0 CELLS/uL
  ABSOLUTE LYMPHOCYTE: 9134.67 CELLS/uL
  ABSOLUTE MONOCYTE: 0 CELLS/uL
  ABSOLUTE SEGMENTED NEUTROPHIL: 898.67 CELLS/uL
  BASOPHIL: 0%
  EOSINOPHIL: 0%
  ERYTHROCYTE COUNT: 5.23 x10E6/uL
  HEMATOCRIT: 33.47%
  HEMOGLOBIN: 13.37 G/DL
  LEUKOCYTE COUNT: 10.03 x10E3/uL
  LYMPHOCYTE: 90.67%
  MEAN CORPUSCULAR HEMOGLOBIN: 25.6 pg
  MEAN CORPUSCULAR HEMOGLOBIN CONCENTRATION: 39.93 G/DL
  MEAN CORPUSCULAR VOLUME: 64.07 fL
  MONOCYTE: 0%
  NEUTROPHIL: 9.33%
  NUCLEATED RED BLOOD CELLS: 0 /100WBC
  PLATELET COUNT: 1185.33 x10E3/uL
  ALANINE AMINOTRANSFERASE: 42.33 u/L
  ALBUMIN: 4.73 G/DL
  ALKALINE PHOSPHATASE: 429 u/L
  ASPARTATE AMINOTRANSFERASE: 94.33 u/L
  BLOOD UREA NITROGEN: 15.67 mg/dL
  CARBON DIOXIDE: 32.67 mmol/L
  CHLORIDE: 101.33 MEQ/L
  CHOLESTEROL: 78.67 mg/dL
  CREATINE PHOSPHOKINASE: 185 u/L
  CREATININE: 0.23 mg/dL
  GLUCOSE: 137.67 mg/dL
  LACTATE DEHYDROGENASE: 131.33 u/L
  LIPASE: 9.67 u/L
  PHOSPHORUS: 12.3 mg/dL
  POTASSIUM: 6.34 MEQ/L
  SODIUM: 150.8 MEQ/L
  TOTAL BILIRUBIN: 0.3 mg/dL
  TOTAL PROTEIN: 6.73 G/DL
  URIC ACID: 0.83 mg/dL
[3]
  ABSOLUTE BASOPHIL: 0 CELLS/uL
  ABSOLUTE EOSINOPHIL: 115 CELLS/uL
  ABSOLUTE LYMPHOCYTE: 10473.33 CELLS/uL
  ABSOLUTE MONOCYTE: 38.33 CELLS/uL
  ABSOLUTE SEGMENTED NEUTROPHIL: 1440 CELLS/uL
  BASOPHIL: 0%
  EOSINOPHIL: 1%
  ERYTHROCYTE COUNT: 5.54 x10E6/uL
  HEMATOCRIT: 36.47%
  HEMOGLOBIN: 14.6 G/DL
  LEUKOCYTE COUNT: 12.07 x10E3/uL
  LYMPHOCYTE: 87%
  MEAN CORPUSCULAR HEMOGLOBIN: 26.37 pg
  MEAN CORPUSCULAR HEMOGLOBIN CONCENTRATION: 40.07 G/DL
  MEAN CORPUSCULAR VOLUME: 65.8 fL
  MONOCYTE: 0.33%
  NEUTROPHIL: 11.67%
  NUCLEATED RED BLOOD CELLS: 0 /100WBC
  PLATELET COUNT: 1230 x10E3/uL
  ALANINE AMINOTRANSFERASE: 51.67 u/L
  ALBUMIN: 4.73 G/DL
  ALKALINE PHOSPHATASE: 334.67 u/L
  ASPARTATE AMINOTRANSFERASE: 73 u/L
  BLOOD UREA NITROGEN: 15.33 mg/dL
  CARBON DIOXIDE: 31.33 mmol/L
  CHLORIDE: 104 MEQ/L
  CHOLESTEROL: 66 mg/dL
  CREATINE PHOSPHOKINASE: 123.33 u/L
  CREATININE: 0.18 mg/dL
  GLUCOSE: 160 mg/dL
  LACTATE DEHYDROGENASE: 97.33 u/L
  LIPASE: 9.33 u/L
  PHOSPHORUS: 14.23 mg/dL
  POTASSIUM: 6.63 MEQ/L
  SODIUM: 149.93 MEQ/L
  TOTAL BILIRUBIN: 0.2 mg/dL
  TOTAL PROTEIN: 6.63 G/DL
  URIC ACID: 1.7 mg/dL
